Test results reported in PubChem BioAssay AID1996.
Values after ≈ are worked out from the molar mass of the structure shown.

settings: buffer; pH 7.4; 200.0 µM

**Q.** Which solubility kinetic does the source give for Nc1ccc(Oc2ccc3c(c2)OCO3)cc1 here?
**A.** 27.3 µg/mL (≈ 119 µM)

**Q.** With N#Cc1cccnc1N1CCN(C(=O)COCC(=O)O)CC1 as the molecule, how does the solubility kinetic read?
**A.** 41 µg/mL (≈ 135 µM)

**Q.** With CCN(CC)CCC(O)(c1ccccc1)C1CCCCC1 (stereo unspecified) as the molecule, how does the solubility kinetic read?
**A.** 24.3 µg/mL (≈ 83.9 µM)

**Q.** For Cl.NCCNc1ccc([N+](=O)[O-])cc1, which solubility kinetic is on record?
**A.** > 32.6 µg/mL

**Q.** With Cc1ccccc1C(=O)Nc1cccc(C(=O)Nc2ccccc2C(=O)O)c1 as the molecule, how does the solubility kinetic read?
**A.** > 56.2 µg/mL

**Q.** Which solubility kinetic does the source give for Cc1cccc(NC(=O)c2ccc([N+](=O)[O-])s2)n1 here?
**A.** 9.5 µg/mL (≈ 36.1 µM)

**Q.** Which solubility kinetic does the source give for COc1ccc(CNC(=O)COC(=O)c2ccc(C(=O)c3ccccc3)cc2)cc1 here?
**A.** 7.4 µg/mL (≈ 18.3 µM)

**Q.** Which solubility kinetic does the source give for COc1cc2nc(Cl)nc(N3CCCCC3)c2cc1OC here?
**A.** 1.2 µg/mL (≈ 3.9 µM)

**Q.** Which solubility kinetic does the source give for COC(=O)N1CCN(c2ccc(C)c(C)c2)CC1 here?
**A.** 32.1 µg/mL (≈ 129 µM)

**Q.** With Cc1cc2c(cn1)C(CCC#N)(CCC#N)c1ccccc1-2 as the molecule, how does the solubility kinetic read?
**A.** > 43.1 µg/mL

**Q.** For Cc1ccc2[nH]cc(CCNC(=O)c3cccs3)c2c1, which solubility kinetic is on record?
**A.** > 42.7 µg/mL

**Q.** Which solubility kinetic does the source give for COc1ccccc1NC(=O)N1CCCC1C(=O)NCc1cccs1 (stereo unspecified) here?
**A.** > 53.9 µg/mL

**Q.** With Nc1nc(Nc2cccc(F)c2)nc(N2CCOCC2)c1[N+](=O)[O-] as the molecule, how does the solubility kinetic read?
**A.** 2.9 µg/mL (≈ 8.67 µM)

**Q.** For CC1Cc2ccccc2N1C(=O)/C=C/c1cccc(F)c1 (stereo unspecified), which solubility kinetic is on record?
**A.** 6.2 µg/mL (≈ 22 µM)

**Q.** With OCCC1CN(C2CCSCC2)CCN1C1CCCC1 (stereo unspecified) as the molecule, how does the solubility kinetic read?
**A.** 34.5 µg/mL (≈ 116 µM)

**Q.** Which solubility kinetic does the source give for Cc1ccccc1OCCn1cc(C(=O)O)c2ccccc21 here?
**A.** > 44.3 µg/mL

**Q.** With COC(CNc1ncnc2sc(-c3ccccc3)cc12)OC as the molecule, how does the solubility kinetic read?
**A.** 35.9 µg/mL (≈ 114 µM)

**Q.** For CC(C)[C@H](NC(=O)NCCC1=CCCCC1)C(=O)O, which solubility kinetic is on record?
**A.** > 40.3 µg/mL

**Q.** With Cc1nc(C)c(C(=O)OCC(=O)N(C)c2ccccc2)s1 as the molecule, how does the solubility kinetic read?
**A.** > 45.7 µg/mL

**Q.** Which solubility kinetic does the source give for COc1ccc(C)cc1NC(=O)CN(C)C1CCCCC1 here?
**A.** 30.9 µg/mL (≈ 106 µM)

**Q.** For CCN1CCN(C(=O)/C=C/c2cccc(Cl)c2)CC1, which solubility kinetic is on record?
**A.** 40 µg/mL (≈ 143 µM)

**Q.** For Cc1cc(NS(=O)(=O)c2ccc(NC(=O)c3ccccc3F)cc2)no1, which solubility kinetic is on record?
**A.** > 56.3 µg/mL

**Q.** With CN=C(Nc1cccnc1)c1cccc(C(F)(F)F)c1 as the molecule, how does the solubility kinetic read?
**A.** > 41.9 µg/mL

**Q.** Which solubility kinetic does the source give for Cc1ccccc1OCCCCCCN1CCNCC1.O=C(O)C(=O)O here?
**A.** 49.5 µg/mL

**Q.** With O=C1/C(=C/c2ccncc2)N2CCC1CC2 as the molecule, how does the solubility kinetic read?
**A.** > 32.1 µg/mL

**Q.** For Cc1nc(C)c(C(=O)C2=C(O)C(=O)N(CCN(C)C)C2c2ccco2)s1 (stereo unspecified), which solubility kinetic is on record?
**A.** > 56.3 µg/mL

**Q.** For N#CC(C#N)=Cc1cnc(N2CCN(c3ccccc3)CC2)s1, which solubility kinetic is on record?
**A.** < 0.1 µg/mL

**Q.** With Cc1cc(C)cc(NC(=O)Nc2ccc(N3CCCCC3)cc2)c1 as the molecule, how does the solubility kinetic read?
**A.** 0.3 µg/mL (≈ 0.928 µM)

**Q.** Which solubility kinetic does the source give for CC1CN(C(=O)COC(=O)c2cc3ccccc3cc2O)CC(C)O1 (stereo unspecified) here?
**A.** 12.7 µg/mL (≈ 37 µM)

**Q.** With COC(=O)c1cccc(CSC(=S)N2CCCC2)c1 as the molecule, how does the solubility kinetic read?
**A.** 3.6 µg/mL (≈ 12.2 µM)

**Q.** For CCOC(=O)C1CCCN(CC(O)COCc2ccccc2OC)C1 (stereo unspecified), which solubility kinetic is on record?
**A.** > 52.7 µg/mL

**Q.** For Cc1ccc(S(=O)(=O)N2CCN(CC(=O)N3CCOCC3)CC2)cc1, which solubility kinetic is on record?
**A.** 54.7 µg/mL (≈ 149 µM)

**Q.** For COc1cc(CN2CCCC(C)C2)ccc1OCc1ccccc1 (stereo unspecified), which solubility kinetic is on record?
**A.** 42.9 µg/mL (≈ 132 µM)

**Q.** For O=C(CSc1nnc(NC(=O)c2c(F)cccc2F)s1)NC1CC1, which solubility kinetic is on record?
**A.** > 55.6 µg/mL

**Q.** For Cc1ccc(NC(=O)CSc2nccn2Cc2ccco2)c(C)c1, which solubility kinetic is on record?
**A.** 46.8 µg/mL (≈ 137 µM)

**Q.** For CCSc1ccccc1C(=O)Nc1ccc2c(c1)OCO2, which solubility kinetic is on record?
**A.** 13.8 µg/mL (≈ 45.8 µM)

**Q.** For O=C(CCc1c[nH]c2ccccc12)NCCc1ccc2c(c1)OCCO2, which solubility kinetic is on record?
**A.** 44.4 µg/mL (≈ 127 µM)

**Q.** With O=Cc1ccc(OCC(=O)N2CCOCC2)cc1 as the molecule, how does the solubility kinetic read?
**A.** > 37.4 µg/mL

**Q.** For CSCCC1NC(=O)N(CC(=O)Nc2ccc3c(c2)OCCO3)C1=O (stereo unspecified), which solubility kinetic is on record?
**A.** > 54.8 µg/mL

**Q.** With O=C(NNC(=O)c1ccccc1C(=O)O)c1cc2ccccc2o1 as the molecule, how does the solubility kinetic read?
**A.** > 48.6 µg/mL

**Q.** For O=C(CSCc1ccccc1Cl)Nc1ccc(C(=O)O)cc1, which solubility kinetic is on record?
**A.** > 50.4 µg/mL

**Q.** For COc1cccc2c(O)c(-c3ccccc3)c(=O)[nH]c12, which solubility kinetic is on record?
**A.** > 40.1 µg/mL

**Q.** For N#CC1=C(N)OC2=C(C(=O)CCC2)C1c1ccc2c(c1)OCO2 (stereo unspecified), which solubility kinetic is on record?
**A.** 16.5 µg/mL (≈ 53.2 µM)

**Q.** Which solubility kinetic does the source give for COCC1CCN(Cc2nc(-c3ccc(OC)cc3)no2)CC1 here?
**A.** 41 µg/mL (≈ 129 µM)

**Q.** Which solubility kinetic does the source give for CCOc1ccc(-n2cnc3sc4c(c3c2=O)CCCC4)cc1 here?
**A.** 0.8 µg/mL (≈ 2.45 µM)

**Q.** With O=C1C(Cc2cnc[nH]2)NC(=S)N1c1ccccc1 (stereo unspecified) as the molecule, how does the solubility kinetic read?
**A.** 37.4 µg/mL (≈ 137 µM)

**Q.** For O=C1C2CCCCN2C(=O)N1CCCN1CCN(c2ccc(F)cc2)CC1 (stereo unspecified), which solubility kinetic is on record?
**A.** 48.1 µg/mL (≈ 128 µM)

**Q.** With CC(C)n1cc(/C=C2/NC(=O)NC2=O)c2ccccc21 as the molecule, how does the solubility kinetic read?
**A.** 0.7 µg/mL (≈ 2.6 µM)

**Q.** For Cc1cccc(NC(=O)c2ccc(COc3ccccc3)o2)n1, which solubility kinetic is on record?
**A.** 4.8 µg/mL (≈ 15.6 µM)

**Q.** For CN1CCN(C(=O)COc2ccc3ccccc3c2)CC1, which solubility kinetic is on record?
**A.** > 42.7 µg/mL

**Q.** For CC(=O)Nc1ccccc1C(=O)C(=O)NCCc1ccccc1, which solubility kinetic is on record?
**A.** 40.5 µg/mL (≈ 130 µM)

**Q.** For Cc1cc([N+](=O)[O-])nn1CC(=O)N(C)C1CCCCC1, which solubility kinetic is on record?
**A.** > 42 µg/mL

**Q.** Which solubility kinetic does the source give for O=C(/C=C/c1cccc2ccccc12)N1CCOCC1 here?
**A.** > 40.1 µg/mL

**Q.** Which solubility kinetic does the source give for CCCCC(=O)Nc1cccc(-c2nc3ncccc3o2)c1C here?
**A.** > 46.4 µg/mL

**Q.** With Cc1cc(=O)n(Cc2ccccc2)c2c(C)cccc12 as the molecule, how does the solubility kinetic read?
**A.** < 0.6 µg/mL

**Q.** Which solubility kinetic does the source give for CC(C)(C)c1cc(CCC(=O)NCc2cccnc2)cc(C(C)(C)C)c1O here?
**A.** 36.5 µg/mL (≈ 99 µM)

**Q.** Which solubility kinetic does the source give for Cc1csc(NC(=O)c2cc(=O)[nH]c3ccccc23)n1 here?
**A.** 10.5 µg/mL (≈ 36.8 µM)

**Q.** With CC(=O)c1ccc(/C=C/c2nc3ccccc3n2C)o1 as the molecule, how does the solubility kinetic read?
**A.** > 39.9 µg/mL

**Q.** Which solubility kinetic does the source give for Cc1ccc(C(=O)Nc2ccc(C(=O)NCC3CCCO3)cc2)cc1 (stereo unspecified) here?
**A.** 3.5 µg/mL (≈ 10.3 µM)

**Q.** For O=C1NC(=S)S/C1=C\c1ccc2ccccc2c1, which solubility kinetic is on record?
**A.** 1.1 µg/mL (≈ 4.05 µM)

**Q.** Which solubility kinetic does the source give for O=C(NC1CCCCC1)C1CC(=O)N(CCc2ccc(F)cc2)C1 (stereo unspecified) here?
**A.** 45 µg/mL (≈ 135 µM)
